The subject of series [1] is CD34+ cells from normal cord blood. In words: SL/M2 stromal co-culture with colony and replating assays, cord blood. It is filed as cell-based, human. The settings on record: even at high doses. Here is the method: In hypothesis-driven experiments, the splicing modulatory compound 17S-FD-895 was tested to determine efficacy in altering splicing activity in cell lines, and to evaluate effects on AML LSC survival and self-renewal capacity in humanized bone marrow stromal co-cultures and in PRIMAGRAFT™ AML LSC models. Cell culture experiments were performed using 293T and sAML (MOLM-13) cell lines, and SL and M2 bone marrow stromal cell lines. Animal studies were performed using immunocompromised Rag2−/−γc−/−[20] or NOD/SCID-IL2RG mice (Jackson Laboratory, Bar Harbor, Me.). Primary AML and normal control samples were used in in vitro hematopoietic stem and progenitor assays after bone marrow stromal co-culture and treatment with splicing modulatory compounds (FD-895 or 17S-FD-895) or vehicle control (DMSO). Colony formation potential and self-renewal capacity were assessed by counting colony numbers (survival) after two weeks of growth in semi-solid (methylcellulose) media, and subsequent replating capacity (self-renewal) was assessed after transfer to fresh methylcellulose for an additional two weeks of culture. […]

For series [2], the system named is AML-37 human LSC engrafted in Rag2−/−γc−/− mice. The experiment in a line: sAML PRIMAGRAFT model AML-37: FACS engraftment analysis and serial transplantation. It is filed as in vivo, mouse. The protocol:
(§1) All animal studies were performed in accordance with UCSD and NIH-equivalent ethical guidelines and were approved by the Institutional Animal Care and Use Committee (IACUC protocol # S06015). For all in vivo experiments, animals of both genders were utilized. Three AML PRIMAGRAFT™ models were established by transplanting AML LSC-enriched cell fractions (either CD34-selected or FACS-purified stem or progenitor cell fractions from primary patient samples) into immunocompromised Rag2^−/−γc^−/−[20] or NOD/SCID-IL2RG mice (Jackson Laboratory) constitutively expressing human SCF, GM-CSF and IL-3 (NSGS) (FIGS. 8A-8D). For all transplantations into Rag2^−/−γc^−/− animals, neonatal mice were transplanted with human cells intrahepatically as previously described, and for all transplantations into NSGS animals, sublethally irradiated (300 Rad) adult (6-8 weeks old) mice were transplanted intravenously with 1-2×10^5 CD34^+ human cells.
For in vivo treatments, a 10 mg/mL stock solution of 17S-FD-895 solubilized in DMSO was used. After randomization, AML-engrafted mice were dosed intravenously with 17S-FD-895 (5-10 mg/kg) or vehicle (for AML-08, vehicle control=15% DMSO in PBS; for AML-37, vehicle control=20% DMSO in PBS) three times over a two-week period, with the first dose given on day 1, the second on day 7, and the third on day 14. For preparation of RNA from human LSC-enriched populations, single cell suspensions from spleen and bone marrow were CD34 double-selected (over two LS selection columns, Miltenyi) and 1-2×10^5 cells were collected in lysis buffer or pooled according to treatment group for serial transplantation assays.
Mice transplanted with 1-2×10^5 CD34^+ AML LSC-enriched fractions or no-transplant controls were screened for human hematopoietic cell engraftment (CD45^+ cells) in peripheral blood by FACS starting at 7-10 weeks post transplant. At 7-28 weeks post-transplant (7-36 weeks old), mice were euthanized, and peripheral blood and single cell suspensions of hematopoietic organs were analyzed for human cell engraftment by FACS. Total cell suspensions from bone marrow and spleen were either transplanted immediately or CD34-selected for transplant into secondary recipient mice (1-2×10^5 cells per animal) to expand the cells in vivo. […] Secondary recipient mice were euthanized after 8-23 weeks, and cell suspensions from bone marrow and spleen were CD34-selected for transplant into tertiary recipients for 17S-FD-895 treatment.
The 17S-FD-895 dosing regimen was selected as the maximum number of doses possible for the treatment of three experimental groups with the amount of synthesized compound that was available, and is consistent with weekly IV dosing regimens used in clinical trials of spliceosome inhibitory compounds in patients with solid tumors. Animals were euthanized within two hours after delivery of the final dose of 17S-FD-895, and peripheral blood, spleens and bone marrows were collected for analysis of total human cell and stem and progenitor cell engraftment, and for RNA extraction for splice isoform-specific qRT-PCR.
Flow cytometric analysis was performed on single cell suspensions from each hematopoietic tissue essentially as for primary patient samples, and frequencies of total live human CD45^+ cells, and CD45^+CD34^+CD38^− Lin^− (stem) and CD45^+CD34^+CD38^+ Lin^− (progenitor) cells were determined in each tissue. Analysis of progenitor cell subpopulations was performed for AML-37, with GMP identified as CD123^+CD45RA^+, CMP as […] and megakaryocyte-erythroid progenitors (MEP) as […]. Inclusion/exclusion criteria were pre-established based on minimum CD45^+ cell engraftment rates of 1% in peripheral blood, as determined by previous PRIMAGRAFT™ experiments. […]

The test system of series [3] is AML-08 human LSC engrafted in NSGS mice. The experiment in a line: De novo AML PRIMAGRAFT model AML-08: FACS engraftment analysis and serial transplantation. It counts as in vivo, mouse. The protocol: as §1, with “For all transplantations into Rag2^−/−γc^−/− animals, neonatal mice were transplanted with human cells intrahepatically as previously described, and for all transplantations into NSGS animals, sublethally irradiated (300 Rad) adult (6-8 weeks old) mice were transplanted intravenously with 1-2×10^5 CD34^+ human cells.” left out
Mice transplanted with 1-2×10^5 CD34^+ AML LSC-enriched fractions or no-transplant controls were screened for human hematopoietic cell engraftment (CD45^+ cells) in peripheral blood by FACS starting at 7-10 weeks post transplant. At 7-28 weeks post-transplant (7-36 weeks old), mice were euthanized, and peripheral blood and single cell suspensions of hematopoietic organs were analyzed for human cell engraftment by FACS. […]
Flow cytometric analysis was performed on single cell suspensions from each hematopoietic tissue essentially as for primary patient samples, and frequencies of total live human CD45^+ cells, and CD45^+CD34^+CD38^− Lin^− (stem) and CD45^+CD34^+CD38^+ Lin^− (progenitor) cells were determined in each tissue. […]

Series [4] deals with CD34+ cells from normal aged bone marrow. The experiment in a line: SL/M2 stromal co-culture with colony and replating assays, normal bone marrow. It counts as cell-based, human. The settings on record: normal aged bone marrow samples. The protocol: In hypothesis-driven experiments, the splicing modulatory compound 17S-FD-895 was tested to determine efficacy in altering splicing activity in cell lines, and to evaluate effects on AML LSC survival and self-renewal capacity in humanized bone marrow stromal co-cultures and in PRIMAGRAFT™ AML LSC models. Cell culture experiments were performed using 293T and sAML (MOLM-13) cell lines, and SL and M2 bone marrow stromal cell lines. Animal studies were performed using immunocompromised Rag2−/−γc−/−[20] or NOD/SCID-IL2RG mice (Jackson Laboratory, Bar Harbor, Me.). Primary AML and normal control samples were used in in vitro hematopoietic stem and progenitor assays after bone marrow stromal co-culture and treatment with splicing modulatory compounds (FD-895 or 17S-FD-895) or vehicle control (DMSO). Colony formation potential and self-renewal capacity were assessed by counting colony numbers (survival) after two weeks of growth in semi-solid (methylcellulose) media, and subsequent replating capacity (self-renewal) was assessed after transfer to fresh methylcellulose for an additional two weeks of culture. Three primary AML samples were utilized to establish PRIMAGRAFT™ models in immunocompromised mice, and mice engrafted with cells from two of these models (AML-37 and AML-08) were treated with 17S-FD-895 or vehicle (DMSO) to evaluate changes in AML LSC survival and self-renewal capacity in vivo. Data were collected by flow cytometry and qRT-PCR analysis of CD34-selected human LSC-enriched cells from engrafted mice.
Bone marrow SL/M2 monolayers were established from freshly inactivated (irradiated) cells and then human CD34^+ cells selected from AML primary samples (n=8) and normal controls (CD34^+ cells from cord blood, CB, n=6; or aged bone marrow, n=6) were added. Survival and self-renewal of the CD34+ cells were investigated by methylcellulose-based colony and replating assays. Two SF3B1-targeted splicing modulators, FD-895 or 17S-FD-895, were added at the initiation of co-culture at concentrations ranging from 0.1 to 10 μM.
As previously described (Goff et al., 2013), humanized bone marrow SL/M2 monolayers were inactivated (irradiated) and then human CD34^+ cells selected from AML primary samples and normal controls were added for two weeks of co-culture, followed by methylcellulose-based colony and replating assays. FD-895 or 17S-FD-895 were added at the initiation of co-culture, with DMSO as a vehicle control.

“Also recorded” adds a separate entry of the source.

Consider `CC[C@H](OC)[C@@H](C)[C@H]1O[C@@H]1[C@@H](O)[C@H](C)/C=C/C=C(\C)[C@H]1OC(=O)C[C@H](O)CC[C@@](C)(O)[C@@H](OC(C)=O)/C=C/[C@@H]1C` (stereo in doubt) [Formula 17S-FD-895, 17S-FD-895], for which the “normal CB samples, survival and self-renewal” value in series [1] is on record as “unaffected”. The “common myeloid progenitor (CMP) frequency” value in series [2] (AML-37, 5 or 10 mg/kg) was “slight increase”. The GMP frequency result in series [2] (AML-37, 5 or 10 mg/kg, hematopoietic tissues) was “reduced GMP frequency; also recorded: significantly reduced”. For the same molecule, the “human leukemic burden in serial transplant recipients” value in series [2] (recipients of CD34+ cells from 10 mg/kg group versus vehicle controls) was “marked reduction; also recorded: marked decrease”. In addition, the “reduction of human stem cells (CD45+CD34+CD38− Lin−)” value in series [2] (spleens, 10 mg/kg group versus vehicle controls, p<0.05) stood at 68%. Further, the “reduction of human progenitor cells (CD45+CD34+CD38+ Lin−)” value in series [2] (spleens, 10 mg/kg group versus vehicle controls, p=0.08) is recorded as 80%. In series [2] (spleens, 10 mg/kg versus vehicle), the “human HSPC frequency” value was “decrease in human HSPC frequency”. Also, the “circulating leukemic cells in secondary recipients” value in series [3] (de novo AML model, lower dose) is on record as “trend towards decreased circulating leukemic cells”. Besides, the “decrease in circulating leukemic burden in secondary recipients” value in series [3] (model with high disease burden, serial transplantation, p=0.07) was found to be 49%. In series [4], the “erythroid colony formation and self-renewal” value was “not significantly changed; also recorded: no effect on erythroid colonies”; the “granulocyte-macrophage (myeloid) colony survival” value is “slight decrease; also recorded: reduces myeloid colony formation”.
